In ChEMBL document CHEMBL1146811, “Specific inhibition effects of N-pentafluorobenzyl-1-deoxynojirimycin on human CD4+ T cells” (Bioorg Med Chem Lett, 2004) one finds IC50 data, which are given here for two compounds.

A short description of this assay: Effect on proliferation of human peripheral blood mononuclear cells (PMBC) at 72 hr using MTT assay. It counts as functional. In general terms: Tetrazolium assays rely on reduction of a dye to a coloured formazan, in cell work by metabolically active cells.

`OCC1C(O)C(O)C(O)CN1Cc1c(F)c(F)c(F)c(F)c1F` (configuration not stated): the midpoint of inhibition, the IC50, lay at 20.2 µM.
Then `OC[C@H]1NC[C@H](O)[C@@H](O)[C@@H]1O` [DUVOGLUSTAT], with 25.6 µM.
